According to PubChem BioAssay (NCI):
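Results reflect a 48-hour exposure of cells in 96-well plates to compound at five concentrations. GI50: concentration for 50% inhibition of growth. TGI: concentration producing complete growth inhibition.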

Experiments:
Test in all cases: NCI anticancer screen, dose series, 48 h
OVCAR-5 ovarian = test system: OVCAR-5 ovarian
NCI-H23 lung = test system: NCI-H23 lung
SNB-19 CNS = test system: SNB-19 CNS
HCT-15 colon = test system: HCT-15 colon
LOX IMVI melanoma = test system: LOX IMVI melanoma
CCRF-CEM leukemia = test system: CCRF-CEM leukemia
NCI-H522 lung = test system: NCI-H522 lung
MOLT-4 leukemia = test system: MOLT-4 leukemia
M14 melanoma = test system: M14 melanoma
HL-60(TB) leukemia = test system: HL-60(TB) leukemia

SMILES	TGI (OVCAR-5 ovarian)	TGI (NCI-H23 lung)	TGI (SNB-19 CNS)	TGI (HCT-15 colon)	TGI (LOX IMVI melanoma)	TGI (CCRF-CEM leukemia)	TGI (NCI-H522 lung)	TGI (MOLT-4 leukemia)	TGI (M14 melanoma)	TGI (HL-60(TB) leukemia)	GI50 (OVCAR-5 ovarian)	GI50 (NCI-H23 lung)	GI50 (SNB-19 CNS)	GI50 (HCT-15 colon)	GI50 (LOX IMVI melanoma)	GI50 (CCRF-CEM leukemia)	GI50 (NCI-H522 lung)	GI50 (MOLT-4 leukemia)	GI50 (M14 melanoma)	GI50 (HL-60(TB) leukemia)
COC1CC(OS(=O)(=O)c2ccc([N+](=O)[O-])cc2)C(OC(=O)c2ccccc2)C(C)O1 (stereo not given)	> 100 µM	> 100 µM	> 100 µM	> 100 µM	> 100 µM	> 100 µM	> 100 µM	> 100 µM	> 100 µM	> 100 µM										
Cc1ccc(Nc2n[nH]c(=S)s2)cc1C	> 100 µM	> 100 µM	> 100 µM	> 100 µM	> 100 µM	> 100 µM	> 100 µM	> 100 µM	> 100 µM	> 100 µM										
CCOc1ccccc1N1C(=O)C(=O)C(c2nc3ccccc3o2)C(=O)C1=O	> 100 µM	> 100 µM	> 100 µM	> 100 µM	> 100 µM	> 100 µM	> 100 µM	> 100 µM	> 100 µM	> 100 µM										
C=C1CCC2C3(C)COC(c4ccc(N(C)C)cc4)OC3CCC2(C)C1C/C=C1/C(=O)OCC1O (stereo not given)	20 µM	15.7 µM	32.3 µM	6 µM	3.5 µM	3.99 µM	14 µM	5.68 µM	16.7 µM	3.6 µM	7.7 µM	4.37 µM	16.4 µM	1.91 µM	1.59 µM	1.35 µM	3.22 µM	1.97 µM	4.1 µM	1.36 µM
O=[N+]([O-])O.[Cu+2].[NH-]CC[NH-].[NH-]CC[NH-]	> 10 µM	> 10 µM	> 10 µM	> 10 µM	> 10 µM	> 10 µM	> 10 µM	> 10 µM	> 10 µM	> 10 µM	> 10 µM	> 10 µM	> 10 µM	> 10 µM	> 10 µM	> 10 µM	> 10 µM	> 10 µM	> 10 µM	> 10 µM
CN1C(=Nc2ccccc2)SC1=Nc1ccccc1	> 100 µM	> 100 µM	> 100 µM	> 100 µM	> 100 µM	> 100 µM	41.3 µM	> 100 µM	> 100 µM	> 100 µM										
COc1ccc2n[se]nc2c1	> 100 µM	> 100 µM	> 100 µM	> 100 µM	> 100 µM	> 100 µM	> 100 µM	> 100 µM	> 100 µM	> 100 µM										
C=C(C)C(=O)O[C@H]1CC(=C)[C@@H]2C[C@H](O)[C@](O)(CCl)[C@@H]2[C@H]2OC(=O)C(=C)[C@@H]21	29.6 µM	25.7 µM	32.2 µM	4.42 µM	3.39 µM	3.71 µM	4 µM	3.84 µM	6.88 µM	4.19 µM	14.8 µM	11.6 µM	16.6 µM	1.89 µM	1.8 µM	1.57 µM	1.91 µM	1.44 µM	2.78 µM	1.97 µM
